Laboratory results reported in patent US6458796B1, “Dihydro-[1,2,3]triazolo-[4,5-d]pyrimidin-7-one” (Bayer Aktiengesellschaft, priority 1998, dated 2002).

Experiments:
[1] = test system: T1, Ca2+-calmodulin-stimulated PDE I; test: Inhibition of the phosphodiesterases in vitro: PDE I; type: biochemical, porcine or bovine (preferably bovine aorta); settings: 1 μM CaCl2 and 0.1 μM calmodulin added; substrate 10^-6 mol/l
T1 construct: The Ca^2+-calmodulin-stimulated PDE I was isolated from porcine aorta, porcine brain or, preferably, from bovine aorta
Method: (§1) The c-GMP-stimulated PDE II, the c-GMP-inhibited PDE III and the cAMP-specific PDE IV were isolated either from porcine or bovine heart myocardium. The Ca^2+-calmodulin-stimulated PDE I was isolated from porcine aorta, porcine brain or, preferably, from bovine aorta. The c-GMP-specific PDE V was obtained from porcine small intestine, porcine aorta, human platelets and, preferably, from bovine aorta. Purification was carried out by anion exchange chromatography over MonoQ^R Pharmacia, essentially following the method of M. Hoey and Miles D. Houslay, Biochemical Pharmacology, Vol. 40, 193-202 (1990) and C. Lugman et al. Biochemical Pharmacology Vol. 35 1743-1751 (1986).
(§2) The enzyme activity is determined using a test mixture of 100 μl in 20 mM Tris/HCl buffer pH 7.5 containing 5 mM MgCl2, 0.1 mg/ml of bovine serum albumin and either 800 Bq ^3HcAMP or ^3HcGMP. The final concentration of the nucleotides in question is 10^−6 mol/l. The reaction is initiated by addition of the enzyme and the amount of enzyme is such that during the incubation time of 30 min, approximately 50% of the substrate is converted. To test the cGMP-stimulated PDE II, ^3HcAMP is used as substrate and 10^−6 mol/l of non-labelled cGMP are added to the mixture. To test the Ca-calmodulin-dependent PDE I, 1 μM of CaCl2 and 0.1 μM of calmodulin are added to the reaction mixture. The reaction is quenched by addition of 100 μL of acetonitrile, containing 1 mM cAMP and 1 mM AMP. 100 μl of the reaction mixture are separated by HPLC and the cleavage products are determined quantitatively on-line using a continuous scintillation counter. The substance concentration measured is the concentration at which the reaction rate is reduced by 50%. Additionally, the “phodiesterase [^3H] cAMP-SPA enzyme assay” and the “phosphodiesterase [^3H] cGMP-SPA enzyme assay” from Amersham Life Science were used for testing. The test was carried out according to the test protocol of the manufacturer. To determine the activity of PDE2, the [^3H] cAMP-SPA assay was used, and 10^−6 M cGMP were added to the reaction mixture to activate the enzyme. To measure PDE1, 10^−7 M calmodulin and 1 μM CaCl2 were added to the reaction mixture. PDE5 was measured using the [^3H] cGMP-SPA assay.

c-GMP-specific PDE V = biological target: T2, c-GMP-specific PDE V (Bos taurus, UniProt Q28156); test: Inhibition of the phosphodiesterases in vitro: PDE V; type: biochemical, porcine, human platelets or, preferably, bovine aorta; settings: 3HcGMP substrate 10^-6 mol/l
T2 construct: porcine aorta, human platelets and, preferably, from bovine aorta; from tissue; host or cells: porcine small intestine, porcine aorta, human platelets or, preferably, bovine aorta
Method: as §1, §2

c-GMP-stimulated PDE II = biological target: T3, c-GMP-stimulated PDE II (UniProt P14099); test: Inhibition of the phosphodiesterases in vitro: PDE II; type: biochemical, porcine or bovine (heart myocardium); settings: 3HcAMP substrate, 10^-6 mol/l cGMP added
T3 sequence (P14099 1-921): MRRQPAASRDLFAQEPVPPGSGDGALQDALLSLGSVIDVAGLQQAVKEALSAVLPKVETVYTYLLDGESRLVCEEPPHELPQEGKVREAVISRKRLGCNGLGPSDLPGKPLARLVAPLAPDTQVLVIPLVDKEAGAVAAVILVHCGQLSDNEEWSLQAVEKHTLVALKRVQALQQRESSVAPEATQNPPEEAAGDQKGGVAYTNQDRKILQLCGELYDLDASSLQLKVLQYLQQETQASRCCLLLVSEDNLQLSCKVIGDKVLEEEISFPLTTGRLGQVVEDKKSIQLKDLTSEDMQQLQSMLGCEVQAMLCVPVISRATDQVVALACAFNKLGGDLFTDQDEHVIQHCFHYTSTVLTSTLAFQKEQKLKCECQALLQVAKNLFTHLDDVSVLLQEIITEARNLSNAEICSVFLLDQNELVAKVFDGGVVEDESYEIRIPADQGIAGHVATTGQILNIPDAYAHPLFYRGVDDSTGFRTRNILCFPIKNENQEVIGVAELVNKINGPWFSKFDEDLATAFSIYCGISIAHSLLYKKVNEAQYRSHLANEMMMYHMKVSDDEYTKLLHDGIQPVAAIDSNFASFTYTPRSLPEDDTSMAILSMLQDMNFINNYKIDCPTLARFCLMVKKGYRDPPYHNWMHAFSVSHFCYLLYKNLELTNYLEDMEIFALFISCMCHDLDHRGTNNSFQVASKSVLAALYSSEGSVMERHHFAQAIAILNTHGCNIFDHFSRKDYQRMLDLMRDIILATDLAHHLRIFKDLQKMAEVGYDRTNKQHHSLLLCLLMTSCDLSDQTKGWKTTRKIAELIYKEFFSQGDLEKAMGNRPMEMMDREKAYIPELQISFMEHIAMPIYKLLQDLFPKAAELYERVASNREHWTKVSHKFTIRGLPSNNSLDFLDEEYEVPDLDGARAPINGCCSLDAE
Method: as §1, §2

melting point	IC50 [1]	IC50 (c-GMP-specific PDE V)	IC50 (c-GMP-stimulated PDE II)	Structure (SMILES)
	500 nM	≥ 1000 nM	300 nM	CC(O)C(CCCc1ccccc1)n1nnc2c(=O)[nH]c(Cc3ccc4c(c3)OCO4)nc21 (stereo not shown) [Example 30, 5-Benzo[1,3]dioxol-5-ylmethyl-3-[1-(1-hydroxy-ethyl)-4-phenyl-butyl]-3,6-dihydro-[1,2,3]triazolo[4,5-d]pyrimidin-7-one]
	> 1000 nM	> 1000 nM	40 nM	COc1ccc(Cc2nc3c(nnn3C(CCCc3ccccc3)C(C)O)c(=O)[nH]2)cc1OC (stereo not shown) [Example 31, 5-(3,4-Dimethoxy-benzyl)-3-[1-(1-hydroxy-ethyl)-4-phenyl-butyl]-3,6-dihydro-[1,2,3]triazolo[4,5-d]pyrimidin-7-one]

More lines, now with the values behind:

Structure (SMILES)	melting point	IC50 [1]	IC50 (c-GMP-specific PDE V)	IC50 (c-GMP-stimulated PDE II)
CC(CCCc1ccccc1)n1nnc2c(=O)[nH]c(Cc3ccccc3)nc21 (stereo not shown) [Example 4, 5-Benzyl-3-(1-methyl-4-phenyl-butyl)-3,6-dihydro-[1,2,3]triazolo[4,5-d]pyrimidin-7-one]	112 °C			
COc1ccc(Cc2nc3c(nnn3C(C)CCCc3ccccc3)c(=O)[nH]2)cc1OC (stereo not shown) [Example 5, 5-(3,4-Dimethoxy-benzyl)-3-(1-methyl-4-phenyl-butyl)-3,6-dihydro-[1,2,3]triazolo-[4,5-d]pyrimidin-7-one]		500 nM	500 nM	80 nM
CNS(=O)(=O)c1ccc(Cc2nc3c(nnn3C(C)CCCc3ccccc3)c(=O)[nH]2)cc1 (stereo not shown) [Example 19, N-Methyl-4-[3-(1-methyl-4-phenyl-butyl)-7-oxo-6,7-dihydro-3H-[1,2,3]-triazolo-[4,5-d]pyrimidin-5-ylmethyl]-benzenesulphonamide]		200 nM	> 1000 nM	200 nM
CC(CCCc1ccccc1)n1nnc2c(=O)[nH]c(Cc3ccc(S(=O)(=O)NCCO)cc3)nc21 (stereo not shown) [Example 23, N-(2-Hydroxyethyl)-4-[3-(1-methyl-4-phenyl-butyl)-7-oxo-6,7-dihydro-3H-[1,2,3]triazolo[4,5-d]pyrimidin-5-ylmethyl]benzenesulphonamide]		100 nM	> 1000 nM	100 nM
